Data reported in US10278957B2, “Opioid agonist peptides and uses thereof” (Protagonist Therapeutics, Inc., priority 2017, dated 2019).
Square brackets hold non-standard residues; d marks the D form. Peptide text beside a SMILES is read from it. Dmt = Cc1cc(O)cc(C)c1C[C@H](N)C(=O)O; β3hF = N[C@H](CC(=O)O)Cc1ccccc1; Sar = CNCC(=O)O

How the values were obtained:
μ-opioid receptor (MOR) = target: T1, μ-opioid receptor (MOR) (Homo sapiens, UniProt P35372); experiment: MOR agonist cAMP assay (HitHunter cAMP, forskolin-stimulated); assay type: cell-based
T1 construct: host or cells: cAMP Hunter CHO-K1 OPRM1 Gαi cell line
Summary of the method: (§1)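 CHO-K1 Gαi cells expressing OPRM1 or OPRD1 were exposed 30 min at 37° C to 11-point threefold agonist dilutions, in duplicate, with 20 uM forskolin final. cAMP quantified by EFC chemiluminescent competitive immunoassay against cAMP standards. EC50 by four-parameter Hill nonlinear regression.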

[1] = SIF assay (stability in simulated intestinal fluid); assay type: in vitro ADME; conditions: for half-life at 20 μM: simulated intestinal fluid (SIF) with pancreatin, simulated intestinal fluid, pH 6.8, pancreatin, 37° C.
Description: SIF was prepared by adding 6.8 g of monobasic potassium phosphate and 10.0 g of pancreatin to 1.0 L of water. After dissolution, the pH was adjusted to 6.8 using NaOH. DMSO stocks (2 mM) were prepared for each of the opioid agonist peptides. Aliquots of the DMSO solutions were dosed into […], each containing 0.5 mL of SIF, which was pre-warmed to 37° C. The final opioid agonist peptide concentration was 20 μM. The vials were kept in a benchtop Thermomixer® for the duration of the experiment. At each timepoint (0, 5, 10, 20, 40, 60, or 360 minutes or 24 hours), 1.0 mL of acetonitrile containing 1% formic acid was added to one vial to terminate the reaction. Samples were stored at 4° C. until the end of the experiment. After the final timepoint was sampled, the tubes were mixed and then centrifuged at 3,000 rpm for 10 minutes. Aliquots of the supernatant were removed, diluted 1:1 into distilled water containing an internal standard, and analyzed by LCMS/MS. The percent of the opioid agonist peptide remaining at each timepoint was calculated based on the peak area response ratio of opioid agonist peptide to the internal standard. Time 0 was set to 100%, and all later timepoints were calculated relative to time 0. Half-lives were calculated by fitting to a first-order exponential decay equation using Graph pad.

[2] = test system: gastro intestinal motility; experiment: Gastro Intestinal Motility Charcoal Transit Assay; assay type: in vivo; conditions: Table 4; orally dosed; charcoal transit
Description: Animals were treated with 0.2 mL croton oil 96 and 72 hours before the gastro intestinal transit (GIT) assay. Animals were fasted overnight prior to charcoal meal dosing. Test and control articles were administered (PO, IP) followed by an oral dose of aqueous suspension of 5% charcoal in 10% gum arabic. […] Charcoal meal test were given 30 min post-test article dose. Twenty minutes after administration of the charcoal test meal, animals were euthanized via CO2 inhalation followed by cervical dislocation, and the small and large intestines were examined to evaluate GI transit and motility. GI transit is expressed as a percentage of the distance traveled by the charcoal test meal divided by the length of the intestine.

δ-opioid receptor (DOR) = target: T2, δ-opioid receptor (DOR) (Homo sapiens, UniProt P41143); experiment: DOR agonist cAMP assay (HitHunter cAMP, forskolin-stimulated); assay type: cell-based
T2 construct: host or cells: cAMP Hunter CHO-K1 OPRD1 Gαi cell line
Summary of the method: as §1

[3] = SGF assay (stability in simulated gastric fluid); assay type: in vitro ADME; conditions: pig, simulated gastric fluid (SGF) with porcine pepsin, pH 2, pepsin, 37° C.
Description: SGF was prepared by adding 20 mg NaCl, 32 mg porcine pepsin (MP Biochemicals, catalog 02102599), and 70 μl HCl to 10 ml water (final pH=2). Aliquots of SGF (0.5 ml each) were pre-warmed at 37° C. To start the reaction, 1 μl of opioid agonist peptide stock solution (10 mM in DMSO) was added to 0.5 ml SGF and thoroughly mixed such that the final peptide concentration was 20 μM. The reactions were incubated at 37° C. with gentle shaking.
At each timepoint (0, 15, 30, 60 min) 50 µl aliquots were removed and added to 200 ul of acetonitrile containing 0.1% formic acid to quench the reaction. Samples were stored at 4° C. until the end of the experiment and centrifuged at 10,000 rpm for 5 minutes. Aliquots of the supernatant were removed, diluted 1:1 into distilled water containing internal standard, and analyzed by LCMS/MS. The percent of the opioid agonist peptide remaining at each timepoint was calculated based on the peak area response ratio of the opioid agonist peptide to the internal standard. Time 0 was set to 100%, and all later timepoints were calculated relative to time 0. Half-lives were calculated by fitting to a first-order exponential decay equation using GraphPad.

visceral pain (writhing) = experiment: Acetic Acid or Acetylcholine Writhing Assay; assay type: in vivo; conditions: PO; FIGS. 3A and 3B
Description: Animals were fasted overnight prior to the start of the assay. Test and control article doses, ranging from 3-50 mg/kg, were administered (PO) followed by an IP injection of acetic acid (1.0%) or acetylcholine (10 mg/kg), and immediately placed in a viewing chamber. […] Writhing (abdominal constriction) was defined as a contraction of the abdominal musculature accompanied by arching of the back and extension of the limbs. Latency to first writhe and total number of writhes were recorded. Test articles included oral eluxadoline and two illustrative opioid peptides disclosed herein, Peptide A and Peptide D; and control articles included loperamide and morphine

T1 sequence (P35372 whole entry): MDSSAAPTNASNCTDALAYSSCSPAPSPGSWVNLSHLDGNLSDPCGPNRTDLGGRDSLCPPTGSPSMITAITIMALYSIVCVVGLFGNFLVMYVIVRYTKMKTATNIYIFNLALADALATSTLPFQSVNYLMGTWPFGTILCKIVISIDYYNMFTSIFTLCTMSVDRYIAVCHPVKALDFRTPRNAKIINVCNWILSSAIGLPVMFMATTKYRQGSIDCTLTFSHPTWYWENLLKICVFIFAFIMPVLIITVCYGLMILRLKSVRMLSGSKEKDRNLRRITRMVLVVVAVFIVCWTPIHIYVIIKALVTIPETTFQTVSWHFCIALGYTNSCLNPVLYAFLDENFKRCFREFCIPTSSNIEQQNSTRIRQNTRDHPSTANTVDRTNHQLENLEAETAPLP
T2 sequence (P41143 whole entry): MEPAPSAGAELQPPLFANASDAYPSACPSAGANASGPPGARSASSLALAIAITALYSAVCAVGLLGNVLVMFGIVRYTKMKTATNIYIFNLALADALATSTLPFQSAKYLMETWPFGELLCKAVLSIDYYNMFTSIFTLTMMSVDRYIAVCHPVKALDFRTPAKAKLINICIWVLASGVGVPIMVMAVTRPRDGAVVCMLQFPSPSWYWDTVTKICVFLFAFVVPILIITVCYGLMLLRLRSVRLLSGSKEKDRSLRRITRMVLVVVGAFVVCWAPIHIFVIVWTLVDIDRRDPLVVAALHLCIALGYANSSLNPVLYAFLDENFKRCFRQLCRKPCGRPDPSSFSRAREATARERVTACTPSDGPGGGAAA

Compound	Ratio (MOR EC50/DOR EC50) (μ-opioid receptor (MOR); Table 4, MOR EC50 divided by DOR EC50)	SIF (min) ([1]; Table 4, SIF half-life)	% inhibition of GI motility [2]	EC50 (μ-opioid receptor (MOR))	EC50 (δ-opioid receptor (DOR))	half-life at 20 μM [3]	half-life at 20 μM [1]	effect on pain (writhing study) (visceral pain (writhing))
Cc1cc(O)cc(C)c1C[C@H](N)C(=O)N[C@H](C)C(=O)N[C@@H](C)C(=O)N[C@H](CC(=O)N(C)CC(N)=O)Cc1ccccc1 [Seq. ID 66, DMT-(D)Ala-Ala-(b-homoPhe)-Sar-NH2] (H-[Dmt][dA]A[β3hF][Sar]-NH2)	* (for ratio, * indicates between 0.1 and 0.3)	**** (for SIF half-life values, **** indicates >1290)	* (for % inhibition of GI motility, * indicates between 30% and 50%)	–	–	–	–	–
Cc1cc(C(N)=O)cc(C)c1C[C@H](N)C(=O)N[C@H](C)C(=O)NCC(=O)N[C@H](CC(=O)N(C)CC(N)=O)Cc1ccccc1 [compound 70]	–	–	–	< 1 nM	< 1 nM	0.167 to 6 h	> 24 h	–
Cc1cc(O)cc(C)c1C[C@H](N)C(=O)N[C@H](C)C(=O)NC(C)(C)C(=O)N[C@H](CC(=O)N(C)CC(N)=O)Cc1ccccc1 [compound 72]	–	–	–	< 1 nM	< 1 nM	0.167 to 6 h	> 24 h	–
Cc1cc(C(N)=O)cc(C)c1C[C@H](N)C(=O)N[C@@H](C(=O)NCC(=O)N[C@H](CC(=O)N(C)CC(N)=O)Cc1ccccc1)[C@H](C)O [compound 76]	–	–	–	1 to 10 nM	< 1 nM	0.167 to 6 h	> 24 h	–
Cc1cc(C(N)=O)cc(C)c1C[C@H](N)C(=O)N[C@H](C)C(=O)NCC(=O)N[C@H](CC(=O)N(C)CC(=O)O)Cc1ccccc1 [compound 79]	–	–	–	< 1 nM	< 1 nM	> 24 h	> 24 h	–
Cc1cc(O)cc(C)c1C[C@H](N)C(=O)NCC(=O)NCC(=O)N[C@H](CC(=O)N(C)CC(N)=O)Cc1ccccc1 [compound 81] (H-[Dmt]GG[β3hF][Sar]-NH2)	–	–	–	< 1 nM	< 1 nM	> 24 h	> 24 h	–
Cc1cc(O)cc(C)c1C[C@H](N)C(=O)N[C@@H](C(=O)NCC(=O)N[C@H](CC(=O)N(C)CC(N)=O)Cc1ccccc1)[C@H](C)O [compound 82]	–	–	–	< 1 nM	< 1 nM	> 24 h	> 24 h	–
Cc1cc(O)cc(C)c1C[C@H](N)C(=O)N[C@H](Cc1ccc(O)cc1)C(=O)NCC(=O)N[C@H](CC(=O)N(C)CC(N)=O)Cc1ccccc1 [compound 84]	–	–	–	< 1 nM	< 1 nM	> 24 h	> 24 h	–
Cc1cc(C(N)=O)cc(C)c1C[C@H](N)C(=O)N[C@H](Cc1ccc(O)cc1)C(=O)NCC(=O)N[C@H](CC(=O)N(C)CC(N)=O)Cc1ccccc1 [compound 85]	–	–	–	< 1 nM	< 1 nM	6 to 24 h	> 24 h	–
Cc1cc(C(N)=O)cc(C)c1C[C@H](N)C(=O)N[C@H](C)C(=O)NCC(=O)N[C@H](CC(=O)N(C)[C@@H](CC(C)C)C(=O)O)Cc1ccccc1 [compound 92]	–	–	–	1 to 10 nM	< 1 nM	> 24 h	> 24 h	–
Cc1cc(C(N)=O)cc(C)c1C[C@H](N)C(=O)N[C@H](C)C(=O)NCC(=O)N[C@H](CC(=O)N(C)[C@@H](C)C(=O)O)Cc1ccccc1 [compound 93]	–	–	–	< 1 nM	< 1 nM	> 24 h	> 24 h	–
Cc1cc(C(N)=O)cc(C)c1C[C@H](N)C(=O)N[C@H](C)C(=O)NCC(=O)N[C@H](CC(=O)N(C)[C@H](C(=O)O)C(C)C)Cc1ccccc1 [compound 96]	–	–	–	< 1 nM	< 1 nM	> 24 h	> 24 h	–
Cc1cc(C(N)=O)cc(C)c1C[C@H](N)C(=O)N[C@H](C)C(=O)NCC(=O)N[C@H](CC(=O)N(C)[C@H](C(=O)O)c1ccccc1)Cc1ccccc1 [compound 99]	–	–	–	< 1 nM	< 1 nM	> 24 h	> 24 h	–
CCCC[C@@H](C(=O)O)N(C)C(=O)C[C@H](Cc1ccccc1)NC(=O)CNC(=O)[C@@H](C)NC(=O)[C@@H](N)Cc1c(C)cc(C(N)=O)cc1C [compound 101]	–	–	–	1 to 10 nM	< 1 nM	> 24 h	> 24 h	–
Cc1cc(C(N)=O)cc(C)c1C[C@H](N)C(=O)N[C@H](C)C(=O)NCC(=O)N[C@H](CC(=O)N(C)[C@@H](Cc1ccc(O)cc1)C(=O)O)Cc1ccccc1 [compound 102]	–	–	–	< 1 nM	< 1 nM	> 24 h	> 24 h	–
Cc1cc(O)cc(C)c1C[C@H](N)C(=O)N[C@H](C)C(=O)NCC(=O)N[C@H](CC(=O)N(C)[C@@H](C)C(=O)O)Cc1ccccc1 [compound 111]	–	–	–	< 1 nM	< 1 nM	> 24 h	> 24 h	–
Cc1cc(O)cc(C)c1C[C@H](N)C(=O)N[C@H](C)C(=O)NCC(=O)N[C@H](CC(=O)N(CC(N)=O)Cc1ccccc1)Cc1ccccc1 [compound 118]	–	–	–	< 1 nM	< 1 nM	> 24 h	> 24 h	–
CCCC[C@@H](C(=O)O)N(C)C(=O)C[C@H](Cc1ccccc1C)NC(=O)CNC(=O)[C@@H](C)NC(=O)[C@@H](N)Cc1c(C)cc(O)cc1C [compound 140]	–	–	–	< 1 nM	< 1 nM	6 to 24 h	6 to 24 h	–
Cc1cc(O)cc(C)c1C[C@H](N)C(=O)N[C@H](C)C(=O)NCC(=O)N[C@H](CC(=O)N(C)[C@H](C(=O)O)C(C)C)Cc1ccccc1 [compound 161]	–	–	–	< 1 nM	< 1 nM	> 24 h	> 24 h	–
CCCC[C@@H](C(=O)O)N(C)C(=O)C[C@H](Cc1ccc(C)cc1)NC(=O)CNC(=O)[C@@H](C)NC(=O)[C@@H](N)Cc1c(C)cc(C(N)=O)cc1C [compound 165]	–	–	–	< 1 nM	< 1 nM	> 24 h	0.167 to 6 h	–
CCCC[C@@H](C(=O)O)N(C)C(=O)C[C@H](Cc1ccc(F)cc1)NC(=O)CNC(=O)[C@@H](C)NC(=O)[C@@H](N)Cc1c(C)cc(C(N)=O)cc1C [compound 166]	–	–	–	< 1 nM	< 1 nM	> 24 h	> 24 h	–
CCCC[C@@H](C(=O)O)N(C)C(=O)C[C@H](Cc1cccc(Cl)c1)NC(=O)CNC(=O)[C@@H](C)NC(=O)[C@@H](N)Cc1c(C)cc(C(N)=O)cc1C [compound 167]	–	–	–	< 1 nM	< 1 nM	> 24 h	> 24 h	–
Cc1cc(O)cc(C)c1C[C@H](N)C(=O)N[C@H](CC(=O)O)C(=O)NCC(=O)N[C@H](CC(=O)NCC(N)=O)Cc1ccccc1 [compound 179] (H-[Dmt][dD]G[β3hF]G-NH2)	–	–	–	< 1 nM	< 1 nM	> 24 h	> 24 h	–
COc1ccc(CN(C(=O)[C@@H](N)Cc2c(C)cc(C(N)=O)cc2C)[C@@H](C)c2ncc(-c3ccccc3)[nH]2)cc1C(=O)O [eluxadoline, reference compound]	–	–	–	–	–	–	–	little effect on pain
